Data as given in EP0093488A2, “Nortropyl benzopyrrolinone compounds, process for their preparation and pharmaceutical compositions containing them” (BEECHAM GROUP PLC, priority 1982, dated 1983).

System: post-synaptic Dopamine (D.A.) receptors
Test: Inhibition of apomorphine induced climbing in the mouse
Assay type: in vivo
Conditions: dose for 50% inhibition of apomorphine (1 mg/kg s.c.) induced climbing, male CD1 mice, 30 min

Row | Molecule | ED50 (½ hour post dosing po) [mg/kg] | ED50 (subcutaneous dosing)
1 | Cc1ccc(CN2[C@@H]3CCC[C@H]2C[C@H](N2Cc4ccccc4C2=O)C3)cc1 [Compound E1] | 1.1 | 
2 | CN(C)S(=O)(=O)c1ccc2c(c1)C(=O)N([C@@H]1C[C@H]3CC[C@@H](C1)N3Cc1ccccc1)C2 [Compound E9, 6-Dimethylaminosulphonyl-2-N-[3β(8-benzyl-8-azabicyclo [3.2.1]octyl)]phthalimidine] |  | 3.0 (subcutaneous dosing) mg/kg
3 | Cc1ccc(CN2[C@@H]3CCC[C@H]2C[C@H](N2Cc4cc(N)ccc4C2=O)C3)cc1 [Compound E6, 5-Amino-2-[3β-N-(9-(4^1-methylbenzyl)-9-azabicyclo[3.3.1]nonyl)]phthalimidine] | 0.3 | 
4 | O=C1c2ccc(Cl)cc2CN1[C@@H]1C[C@H]2CCC[C@@H](C1)N2Cc1ccc(F)cc1 [Compound E3] | 1.2 | 
5 | Nc1ccc2c(c1)CN([C@@H]1C[C@H]3CCC[C@@H](C1)N3Cc1ccc(F)cc1)C2=O [Compound E5, 5-Amino-2-(3β-N-(9-(4^1-fluorobenzyl)-9-azabicyclo[3.3.1]nonyl)]phthalimidine] | 0.6 | 
6 | 4-Chloro- and 6-Chloro-5-amino-2-(3β-N-(9-(4^1-methylbenzyl) -9-azabicyclo[3.3.1]nonyl)]phthalimidine [Compound E8] | 0.5 | 
7 | Cc1ccc(CN2[C@@H]3CCC[C@H]2C[C@H](N2Cc4cc(Cl)ccc4C2=O)C3)cc1 [Compound E2] | 0.5 | 
